The record followed here is ChEMBL document CHEMBL3988442, “University of Dundee, Small-Polar-MMV Screening Library” (2021).

Each structure is given as a SMILES string.

The nature of assay [1]: microbe, parasite or virus in culture. To be noted: Mycobacterium tuberculosis, 72 h, read-out: pIC50 (converted).
The nature of assay [2]: microbe, parasite or virus in culture. The note with it: Mycobacterium tuberculosis, 96 h, read-out: pIC50 (converted).

Regarding `CNC(=O)CN(C)C(=O)CCc1ccc(Br)cc1F`, the IC50 in assay [1] is 108 µM; in assay [2], 166 µM.
For `COc1ccc2[nH]c(C(=O)NCC3CCCO3)cc2c1` (centres undefined) the same measures were 156 µM and 220 µM.
For `Cc1ccccc1OCCCNC(=O)NC[C@@H](C)O` the same measures were > 501 µM and > 501 µM.
For `NCCNS(=O)(=O)c1cccc(I)c1` the same measures were 326 µM and > 501 µM.
For the compound `O=C(Cn1cccn1)N1CCC(Cn2cc(-c3ccsc3)nn2)CC1`, the IC50 in assay [1] and in assay [2] was > 50.1 µM in each case.
Take `CC(NC(=O)c1ccc(Cl)c(I)c1)C(=O)N(C)C` (centres undefined): the IC50 in assay [1] and in assay [2] was > 501 µM in each case.
Turning to `COC(=O)COc1ccc(-c2noc(C3CCCO3)n2)cc1` (centres undefined), the IC50 in assay [1] is 31.9 µM; in assay [2], 18.6 µM.
Taken in the same sequence, the figures for `O=C(O)[C@@H]1CN(C(=O)NCC2CCCCC2)C[C@H]1c1ccccn1` were > 50.1 µM and > 50.1 µM.
With `CN(CCC(O)c1ccccc1)C(=O)c1cc(Cl)c[nH]1` (centres undefined), the IC50 in assay [1] is 237 µM; in assay [2], 485 µM.
Turning to `CCN1CC(c2nc3ccccc3[nH]2)CC1=O` (centres undefined), the results for the IC50 in assay [1] and in assay [2] were 250 µM and 260 µM, respectively.
For `COCCCNC(=O)c1coc(Br)c1`, the IC50 in assay [1] was 118 µM; in assay [2], 116 µM.
For `Cc1cc(NCC2CCS(=O)(=O)C2)n2nc(C)cc2n1` (centres undefined) the same measures were > 50.1 µM and > 50.1 µM.
For `CCOc1ccc(CSc2nnc[nH]2)cc1` the same measures were 218 µM and 198 µM.
`Cc1ccc(-c2noc(C(C)N)n2)cc1F` (centres undefined): the IC50 in assay [1] is 368 µM; in assay [2], 327 µM.
As to `CCc1noc(CNc2cc3c(cc2Cl)OCCO3)n1`, the IC50 in assay [1] is 26.8 µM; in assay [2], 8.97 µM.
For `CNc1cc(C(=O)NCC(OC)c2cccs2)ccn1` (centres undefined), the values for the IC50 in assay [1] and in assay [2] were 22.9 µM and > 501 µM, respectively.
As to `CCOC(=O)c1cnn(-c2ccc(OCC)cc2)c1N`, the IC50 in assay [1] was 81.7 µM; in assay [2] it was 53.9 µM.
Taken in the same sequence, the figures for `CN1CCN(C(=O)Cn2ccc3ccc(Br)cc32)CC1` were 132 µM and 173 µM.
`CC(C)CCNC(=O)CCn1cc(Br)ccc1=O`: the IC50 was 142 µM in assay [1] and 105 µM in assay [2].
For the compound `Cn1c(CO)nnc1SCC=Cc1ccccc1`, the IC50 in assay [1] is 240 µM; in assay [2], 289 µM.
Taken in the same sequence, the figures for `CCC(N)C(=O)Nc1ccc2c(c1)C(=O)CCC2` (centres undefined) were 163 µM and 137 µM.
For `CCCc1nc(N2CCCC(C)C2)c2c(n1)c(C)nn2CC` (centres undefined) the same measures were 24.2 µM and > 50.1 µM.
With `CCOC(=O)N1CCN(C(=O)Cc2cccs2)CC1`, the IC50 in assay [1] is 371 µM; in assay [2], > 501 µM.
Taken in the same sequence, the figures for `CC(C)Cc1ccc(CS(=O)(=O)CCO)cc1` were 353 µM and 83.5 µM.
Taken in the same sequence, the figures for `C=C(C)COc1c(Cl)cc(C(N)=O)cc1OC` were 223 µM and 295 µM.
Taken in the same sequence, the figures for `Cc1ccc(-c2noc(CNS(C)(=O)=O)n2)cc1` were 248 µM and > 501 µM.
Take `O=c1oc(-c2ccc(F)cc2)nn1CC1CCCCO1` (centres undefined): the figures for the IC50 in assay [1] and in assay [2] were 0.609 µM and > 50.1 µM, respectively.
For `COC(=O)c1ccc(-c2noc(CN(CCO)Cc3cccs3)n2)cc1` the same measures were 47.5 µM and > 50.1 µM.
Taken in the same sequence, the figures for `COc1ccc(OC)c(NC(=O)COCC(F)(F)F)c1` were 227 µM and > 501 µM.
For `CN(CC(=O)Nc1sccc1C(N)=O)Cc1cccs1` the same measures were 117 µM and > 501 µM.
Turning to `O=C(c1cc(COc2ccc3c(c2)OCO3)[nH]n1)N1CCSCC1`, the results for the IC50 in assay [1] and in assay [2] were 31.8 µM and 33.5 µM, respectively.
Taken in the same sequence, the figures for `CCN(C)Cc1nc(-c2ccccc2NS(C)(=O)=O)oc1C` were > 50.1 µM and > 50.1 µM.
On to `NC1CCCN(Cc2ccccc2)C1` (centres undefined), for which the IC50 in assay [1] was 262 µM; in assay [2] it was > 501 µM.
Taken in the same sequence, the figures for `COc1cc(Cl)cc(CN2CCCC(N3CCCC3)C2)c1OC` (centres undefined) were 23.3 µM and 28.3 µM.
For `COC(=O)CNC(=O)c1ccc(C)c(-n2cccc2)c1` the same measures were > 501 µM and > 501 µM.
For the compound `Fc1ccc(C(NCc2nnc(-c3ccco3)o2)C2CCC2)cc1` (centres undefined), the IC50 in assay [1] is 0.884 µM; in assay [2] it was 4.62 µM.
Taken in the same sequence, the figures for `CS(=O)(=O)NCC1CCCN(C(=O)Nc2ccccc2Cl)C1` (centres undefined) were > 50.1 µM and > 50.1 µM.
Taken in the same sequence, the figures for `Cc1nnc(SCCC(=O)N(C)Cc2ccc(F)cc2F)[nH]1` were > 50.1 µM and > 50.1 µM.
Taken in the same sequence, the figures for `CCCNC(=O)c1cc(C(C)C)nc(N2CCCC2)n1` were 11.5 µM and 41.7 µM.
As for `O=C(c1cc(COc2ccc3c(c2)OCO3)[nH]n1)N1CCCCO1`, the figures for the IC50 in assay [1] and in assay [2] were > 50.1 µM and 17.8 µM, respectively.
Regarding `CCn1ncnc1CN1CC(Oc2ccccc2)C1`, the IC50 in assay [1] was 151 µM; in assay [2] it was > 501 µM.
In the case of `Cc1nc(CCN)cc(NC2CCC2)n1`, the results for the IC50 in assay [1] and in assay [2] were 145 µM and > 501 µM, respectively.
Taken in the same sequence, the figures for `CN(C)C(CN)C1CCCCC1` (centres undefined) were 279 µM and 252 µM.
As for `CCc1nc(CNc2ccc(C#N)nc2)cs1`, the IC50 in assay [1] was 113 µM; in assay [2], 96.8 µM.
As for `CN(C)c1cc(C2CCCN(C(=O)c3noc4c3CCCC4)C2)ccn1` (centres undefined), the IC50 was 40 µM in assay [1] and 35.7 µM in assay [2].
For `CN1CCN(C(=O)c2cc3c(F)cccc3s2)CC1` the same measures were 165 µM and > 501 µM.
In the case of `O=C(CCn1cccn1)N1CCc2sccc2C1`, the figures for the IC50 in assay [1] and in assay [2] were 117 µM and > 501 µM, respectively.
With `CCNC(=O)c1cc(N2CCC(COC)CC2)ccn1`, the IC50 in assay [1] was 125 µM; in assay [2] it was > 501 µM.
For `CCC1(NC(=O)c2coc(S(=O)(=O)N(C)C)c2)CCC1`, the IC50 in assay [1] and in assay [2] was > 501 µM each time.
Consider `COc1ccc(OC)c(NC(=O)c2ccccn2)c1`, for which the IC50 is 173 µM in assay [1] and 156 µM in assay [2].
Taken in the same sequence, the figures for `CCCNC(=O)c1ccc(C(=O)OC)cc1` were 120 µM and > 501 µM.
Consider `CNC(=O)C1CN(C(=O)c2cccs2)CCN(S(C)(=O)=O)C1` (centres undefined), for which the IC50 in assay [1] and in assay [2] was > 50.1 µM each time.
As for `CN(C1(C#N)CCC1)S(=O)(=O)c1ccccc1`, the IC50 in assay [1] and in assay [2] was > 501 µM throughout.
On to `Cc1ccc(C(=O)N2CC(Oc3ccccc3C)C2)s1`, for which the IC50 in assay [1] is 8.82 µM; in assay [2], 10.7 µM.
Taken in the same sequence, the figures for `CN(CC(C)(CO)CO)c1ncc(Cl)cc1Cl` were 122 µM and 301 µM.
For `Cc1cc(C)cc(OCCNC(=O)CSCC(N)=O)c1` the same measures were 139 µM and > 501 µM.
On to `CC(Sc1nnc[nH]1)C(=O)Nc1ccc(C#N)cc1` (centres undefined), for which the IC50 in assay [1] and in assay [2] was > 501 µM throughout.
As to `Cc1ccc(CN2CCC3(CC(=O)N(c4cccc(F)c4)C3)C2)o1` (centres undefined), the results for the IC50 in assay [1] and in assay [2] were 20.3 µM and > 50.1 µM, respectively.
For `N#Cc1c(F)cccc1NCCSCCCO` the same measures were 102 µM and 67.1 µM.
Regarding `Cc1cnn(CC2CN(Cc3nc4ccccc4s3)CCO2)c1` (centres undefined), the figures for the IC50 in assay [1] and in assay [2] were 34.7 µM and 14.7 µM, respectively.
As to `COCCC(CO)NC(=O)c1cnn(C(C)C)c1C` (centres undefined), the IC50 in assay [1] is 110 µM; in assay [2] it was 124 µM.
`O=C(c1ccc(NCc2cccc(F)c2)cc1)N1CCCC1`: the IC50 in assay [1] and in assay [2] was > 50.1 µM in each case.
Take `CS(=O)(=O)N1CCC(Cc2ccccc2)C1` (centres undefined): the IC50 in assay [1] was 482 µM; in assay [2], 467 µM.
Turning to `OCCCNc1cccc(Cl)c1-n1cccn1`, the IC50 in assay [1] is 183 µM; in assay [2], > 501 µM.
As to `Cc1ccc2nc(CCN)oc2c1`, the IC50 in assay [1] was 78.4 µM; in assay [2] it was 23.3 µM.
In the case of `O=C(CCc1cc(Cl)no1)N1CCOC(C(F)(F)F)C1` (centres undefined), the IC50 in assay [1] is > 501 µM; in assay [2], 134 µM.
Taken in the same sequence, the figures for `CCN(CCn1cccn1)C(=O)c1cc(C(C)C)no1` were > 501 µM and > 501 µM.
For `CN(C)C1(CN)Cc2ccccc2C1` the same measures were 81.5 µM and 127 µM.
For `O=S(=O)(NCc1nccs1)N1CCc2ccccc2C1` the same measures were 133 µM and 146 µM.
For the compound `Cc1ccc(C(O)c2cccnc2)cc1` (centres undefined), the IC50 in assay [1] and in assay [2] was > 501 µM each time.
As to `COc1ccc(NC(=O)N2CCCN(C)CC2)cc1F`, the IC50 in assay [1] and in assay [2] was > 501 µM each time.
With `CCC(N)c1cnn(CC)c1` (centres undefined), the IC50 in assay [1] and in assay [2] was > 501 µM in each case.
For `COC(=O)N1CCC(Nc2nnc(C(F)(F)F)s2)CC1`, the values for the IC50 in assay [1] and in assay [2] were 160 µM and 230 µM, respectively.
Taken in the same sequence, the figures for `CN(Cc1cnn(C)c1)C(=O)c1ccc(=O)n(C)n1` were > 50.1 µM and > 50.1 µM.
With `COC(=O)N1CC(NC(=O)c2cc(C(C)=O)c[nH]2)C1`, the IC50 in assay [1] and in assay [2] was > 501 µM throughout.
With `CCCn1cc(CNc2ccc(F)cn2)cn1`, the IC50 in assay [1] is 160 µM; in assay [2], 234 µM.
Taken in the same sequence, the figures for `Cc1ccn(-c2ccc(NCc3ccccc3F)nn2)n1` were 32.8 µM and 7.29 µM.
Consider `CC(CNC(=O)c1ccon1)Oc1cccc(Br)c1` (centres undefined), for which the results for the IC50 in assay [1] and in assay [2] were 25.7 µM and 32.6 µM, respectively.
Taken in the same sequence, the figures for `OC(CN1CCn2ccnc2C1)c1ccc(Cl)cc1` (centres undefined) were 186 µM and > 501 µM.
For `Cc1ccc(C2CCCN2CCS(C)(=O)=O)s1` (centres undefined) the same measures were 205 µM and > 501 µM.
For `FC(F)(F)Sc1ccccc1NCc1nc(C2CC2)no1` the same measures were 15.7 µM and > 50.1 µM.
As for `CN(C)CCC(=O)c1ccc(F)cc1`, the IC50 in assay [1] was 92.2 µM; in assay [2], 177 µM.
